# Assay results: US12516016B2, “GPX4 inhibitors, pharmaceutical compositions thereof, and their use for treating GPX4-mediated diseases” (EUBULUS BIOTHERAPEUTICS (HONG KONG) LIMITED, priority 2020, dated 2026)
# Test system: hepatocellular carcinoma cell line Hub-7
# Experiment: Cell proliferation assay (CELL-TITER GLO cell viability)
# Format: cell-based
# Settings: 24 h, Hub-7 cells, 24 h incubation, read-out: Inhibition of Cell Proliferation EC50
# Protocol: The activity of a test compound was determined in a cell proliferation assay using the hepatocellular carcinoma cell line […]. Cells (4,000 cells per well) were seeded in a 96-well tissue culture plate. After incubated overnight, a test compound was added at predetermined concentrations, starting with 10 μM and followed by 3-fold serial dilution. After the cells were incubated for 24 h, cell viability was determined using a CELL-TITER GLO® assay. The CELL-TITER GLO® reagent (50 μL) was added to each well and the luminescence was measured by a multimode microplate reader after a brief period of shaking. EC50 values were determined for the test compound. The results are summarized in Table 1, wherein A represents a value no greater than 100 nM, B represents a value greater than 100 nM but no greater than 500 nM, C represents a value greater than 500 nM but no greater than 2 μM, D represents a value greater than 2 μM but no greater than 10 μM; and E represents a value greater than 10 μM.
row,EC50,SMILES
1,≤ 100 nM,"C#CC(=O)N(c1cc(Cl)ccc1F)C(C(=O)NCc1ccccc1)c1ccc(N)cc1 (centres unmarked) [A57, N-(1-(4-Aminophenyl)-2-(benzylamino)-2-oxoethyl)-N-(5-chloro-2-fluoro-phenyl)propiolamide]"
2,2000 to 10000 nM,"C#CC(=O)N(c1cccc(O)c1)C(C(=O)NCc1ccccc1)c1ccc(N)cc1 (centres unmarked) [A58, N-(1-(4-Aminophenyl)-2-(benzylamino)-2-oxoethyl)-N-(3-hydroxyphenyl)-propiolamide]"
3,100 to 500 nM,"C#CC(=O)N(c1cccc(F)c1)C(C(=O)NCc1ccccc1)c1ccc(N)cc1 (centres unmarked) [A59, N-(1-(4-Aminophenyl)-2-(benzylamino)-2-oxoethyl)-N-(3-fluorophenyl)-propiolamide]"
4,≤ 100 nM,"C#CC(=O)N(c1ccc(OC)cc1)C(C(=O)NCc1ccccc1)c1ccc(N)cc1 (centres unmarked) [A60, N-(1-(4-Aminophenyl)-2-(benzylamino)-2-oxoethyl)-N-(4-methoxyphenyl)-propiolamide]"
5,≤ 100 nM,"C#CC(=O)N(c1cccc(OC)c1)C(C(=O)NCc1ccccc1)c1ccc(N)cc1 (centres unmarked) [A61, N-(1-(4-Aminophenyl)-2-(benzylamino)-2-oxoethyl)-N-(3-methoxyphenyl)-propiolamide]"
6,> 10000 nM,"C#CC(=O)N(c1cccc(C(N)=O)c1)C(C(=O)NCc1ccccc1)c1ccc(N)cc1 (centres unmarked) [A62, 3-(N-(1-(4-Aminophenyl)-2-(benzylamino)-2-oxoethyl)propiolamido)-benzamide]"

# Continued, compound first:
row,SMILES,EC50
1,"C#CC(=O)N(c1cccc(NC(C)=O)c1)C(C(=O)NCc1ccccc1)c1cccc(N)c1 (centres unmarked) [A44, N-(3-Acetamidophenyl)-N-(1-(3-aminophenyl)-2-(benzylamino)-2-oxoethyl)-propiolamide]",2000 to 10000 nM
2,"C#CC(=O)N(c1ccc(O)cc1)C(C(=O)NCc1ccccc1)c1cccc(N)c1 (centres unmarked) [A45, N-(1-(3-Aminophenyl)-2-(benzylamino)-2-oxoethyl)-N-(4-hydroxyphenyl)-propiolamide]",2000 to 10000 nM
3,"C#CC(=O)N(c1cccc(C(N)=O)c1)C(C(=O)NCc1ccccc1)c1cccc(N)c1 (centres unmarked) [A47, 3-(N-(1-(3-Aminophenyl)-2-(benzylamino)-2-oxoethyl)propiolamido)-benzamide]",> 10000 nM
4,"C#CC(=O)N(c1ccc(C#N)cc1)C(C(=O)NCc1ccccc1)c1cccc(N)c1 (centres unmarked) [A48, N-(1-(3-Aminophenyl)-2-(benzylamino)-2-oxoethyl)-N-(4-cyanophenyl)-propiolamide]",≤ 100 nM
5,"C#CC(=O)N(c1ccc(C(=O)OC)cc1)C(C(=O)NCc1ccccc1)c1cccc(N)c1 (centres unmarked) [A49, Methyl 4-(N-(1-(3-aminophenyl)-2-(benzylamino)-2-oxoethyl)propiolamido)-benzoate]",≤ 100 nM
6,"C#CC(=O)N(c1ccc(S(N)(=O)=O)cc1)C(C(=O)NCc1ccccc1)c1cccc(N)c1 (centres unmarked) [A50, N-(1-(3-Aminophenyl)-2-(benzylamino)-2-oxoethyl)-N-(4-sulfamoylphenyl)-propiolamide]",> 10000 nM
7,"C#CC(=O)N(c1ccc(Cl)cc1)C(C(=O)NCc1ccccc1)c1ccc(N)cc1 (centres unmarked) [A52, N-(2-(benzylamino)-1-(4-aminophenyl)-2-oxoethyl)-N-(4-chlorophenyl)propiolamide]",≤ 100 nM
8,"C#CC(=O)N(c1ccc(OC)c(Cl)c1)C(C(=O)NCc1ccccc1)c1ccc(N)cc1 (centres unmarked) [A53, N-(1-(4-Aminophenyl)-2-(benzylamino)-2-oxoethyl)-N-(3-chloro-4-methoxy-phenyl)propiolamide]",≤ 100 nM
9,"C#CC(=O)N(c1cccc(C(=O)OC)c1)C(C(=O)NCc1ccccc1)c1ccc(N)cc1 (centres unmarked) [A54, Methyl 3-(N-(1-(4-aminophenyl)-2-(benzylamino)-2-oxoethyl)propiolamido)-benzoate]",≤ 100 nM
10,"C#CC(=O)N(c1cccc(C#N)c1)C(C(=O)NCc1ccccc1)c1ccc(N)cc1 (centres unmarked) [A55, N-(1-(4-Aminophenyl)-2-(benzylamino)-2-oxoethyl)-N-(3-cyanophenyl)-propiolamide]",100 to 500 nM
11,"C#CC(=O)N(c1cccc(CO)c1)C(C(=O)NCc1ccccc1)c1ccc(N)cc1 (centres unmarked) [A56, N-(1-(4-Aminophenyl)-2-(benzylamino)-2-oxoethyl)-N-(3-(hydroxymethyl)-phenyl)propiolamide]",2000 to 10000 nM
